We go through 36 molecules from a melting point compilation (Tetko et al.; mined from patent text by program, amines drawn as free bases though some values may be those of a salt).

Structures are written as SMILES.

By melting point is commonly meant the temperature of the solid-liquid transition. `CCOC(=O)COc1ccc(C=O)cc1OC`: the melting point lay within 56 to 59 °C.
As for `Cc1cccc(-c2nc(C(C)C)[nH]c2-c2cccc(-c3ccc(S(N)(=O)=O)cc3)c2)n1`, the melting point lay in the range of 255 to 258 °C.
`COC1=C(Cc2ccc(Cl)cc2)C(=O)CC(C)(C)C1`: the melting point fell in the range of 62 to 63 °C.
As for `COc1cc(C(=O)C=Cc2cc(O)c(O)c([N+](=O)[O-])c2)cc(OC)c1OC`, the figure is 213 to 216 °C.
Molecule `Cc1nc2c(Cl)cnn2c(Cl)c1CCCl` came in with a melting point of 115 to 117 °C.
`CCCCCCC(CO)n1cnc(C(N)=O)c1` (stereo unspecified) had a melting point of 97.5 to 100 °C.
In the case of `Cc1cc(C(C)N(O)C(N)=O)ccc1Cl` (stereo unspecified), the melting point is 129 to 131 °C.
Then `CC1=C(C)C(=O)N(CCN(C)C)C1=O`, with 9 °C; and `CCOC(=O)Cn1cc(C(=O)NCCN(C)C)c2nc3c(C)cccc3cc2c1=O`, with 214 to 215 °C.
Then `BrCc1ccc2sc3ccc4ccccc4c3c2c1`, with 202 to 203 °C.
Then `CN(C)C=C(C=O)c1ccc(Cl)cc1`, with 117 to 120 °C.
For `Cc1cn(N=Cc2cccnc2)c(=O)n1N=Cc1cccnc1`, the melting point is 176 to 178 °C.
Then `CCOC(=O)C(OC)c1nn(-c2ccc(Cl)cc2)c2c1CCCC2` (stereo unspecified), with 86 to 87 °C.
As for `COc1ccc2c(c1)CCC1C2CCC2(C)C(=O)C=C(C(C)C)C12` (stereo unspecified), the figure is 113 to 116 °C; as for `O=C(O)Cc1cccc(Oc2ccc(Cl)cc2)c1O`, 100 to 102 °C; as for `CC1COCc2nc3c(N)nc4ccc(O)cc4c3n21` (stereo unspecified), 262 to 264 °C.
The molecule `N=C(Nc1ccc(CCCC(=O)Nc2ccccc2)cc1)c1cccs1` displayed a melting point of 229 to 231 °C.
As for `CCN1CC(OCC2CC2)(C(F)(F)F)c2cc(F)ccc2NC1=O` (stereo unspecified), the figure is 156 °C.
As to `C#CC(C)(C)Oc1ccc2ncccc2c1`, the melting point was in the range of 65 to 67 °C.
Then `N#CC(C#N)=NC1=C(N2CCOCC2)CCC1`, with 157 to 158 °C.
As for `Cc1ncsc1C(=O)Nc1ccc(-n2nc(C3CC3)cc2C2CC2)c(F)c1`, the figure is 102 to 106 °C.
`CCOC(=O)Nc1c(C)cc(Cc2cnc(N)nc2N)cc1C` registered a melting point of 192 to 193 °C.
As for `Clc1ccc(Cl)n2nc(SCc3ccccc3)nc12`, the figure is 103 to 104 °C.
Then `CCN1C(=O)C(O)=C(c2c(C)cc(C)cc2C)C1=O`, with 168 °C; and `O=[N+]([O-])c1cc(O)c(O)c([N+](=O)[O-])c1`, with 168 to 170 °C; and `CC1(C)C=C(C(O)CN)c2ccccc21` (stereo unspecified), with 93 °C.
`Cc1cc(F)ccc1-c1nc(NC(C)(CO)CO)nc2c1ccc(=O)n2-c1ccccc1F`: the melting point lay in the range of 160 to 162 °C.
Then `CCCc1c2nc(C(=O)OC)cc(C(F)(F)C(F)(F)C(F)(F)F)c2cc2c(=O)cc(C(=O)OCC)oc12`, with 144 to 146 °C; and `Cc1cccc([C@@H]2C[C@H]3C=C(c4c[nH]c(-c5ccc(F)cc5)c4-c4ccncc4)CCN3C2)c1`, with 204 to 206 °C; and `COc1ccc(-c2cc(CN)c(=O)n(Cc3ccc(Cl)cc3)n2)cc1F`, with 128 to 131 °C.
Then `Cc1ccc(S(=O)(=O)N=NCNC[C@@H]2C[C@H](C(=O)O)N(C(=O)OC(C)(C)C)C2)cc1`, with 132 to 133 °C.
`O=c1[nH]ncn1-c1ccc(-n2ncn(-c3ccc(OCC(F)(F)C(F)F)cc3)c2=O)cc1` showed a melting point of 297 to 298 °C.
Then `CCOC(=O)C(CCC(=O)c1ccc(F)cc1)(NC(C)=O)C(=O)OCC`, with 73 °C; and `CCC(=NO)c1ccc(Cl)cc1`, with 56 to 57.5 °C; and `C/C(=N\O)c1cccc(NC(=O)NCC(=O)N2[C@@H](C(=O)OC(C)(C)C)CC[C@H]2c2ccccc2)c1` (racemic), with 118 °C.
The molecule `CCCCc1nc2c(n1Cc1ccc(-c3ccccc3S(N)(=O)=O)cc1)C(=O)C(F)CS2` (stereo unspecified) showed a melting point of 208 °C.
